Results from patent publication US20220017512A1 (SHANGHAI ENNOVABIO PHARMACEUTICALS CO., LTD., priority 2018, published 2022).

How the values were obtained:
Assay type in all cases: biochemical
Recombinant human TRKA = target: T1, Recombinant human TRKA (Homo sapiens, UniProt P04629); experiment: In vitro activity test on TRKA kinase (HTRF KinEASE TK); conditions: 14.68 μM ATP, 40 min
T1 construct: purchased Carna Biosciences
Description: (§1) Biological Test Example 1 In Vitro Activity Test on TRKA, TRKB, TRKC Kinase
(§2) Recombinant human TRKA, TRKB, TRKC proteins were purchased from Carna Biosciences. HTRF KinEASE TK kit was purchased from Cisbio Bioassays. Synergy Neo 2 of Biotek was used to read the plate.
(§3) The tested compound was subjected to 3-fold serial dilution to reach a final concentration of 1 μM to 0.05 nM (10 concentrations), duplicates for each concentration; and the DMSO concentration in the detection reaction was 1%.
0.2 ng/μL TRKA protein kinase, 1 μM TK Substrate-biotin polypeptide substrate, 14.68 μM ATP, 1× enzymatic buffer, 5 mM MgCl2, and 1 mM DTT. The detection plate was White Proxiplate384-Plus plate (PerkinElmer), and incubated at room temperature for 40 min, and the assay volume was 10 μL.
(§4) 10 μL of detection reagent was added to the plate (containing 0.125 μM SA-XL665 and 5 μL 1×TK-Antibody) and incubated overnight at room temperature, and Synergy Neo 2 was used to read the plate.
(§5) The 665/620 Ratio was converted according to the following formula into inhibition rate (%)=(1−Ratiotest/Ratiomax)×100%. Ratiomax was a positive control without tested compound, and Ratiotest was the value of each concentration of different compounds. IC50 (nM) data was obtained by 4 parameter curve fitting (see Table 1).

Recombinant human TRKB = target: T2, Recombinant human TRKB (Homo sapiens, UniProt Q16620); experiment: In vitro activity test on TRKB kinase (HTRF KinEASE TK); conditions: 4.77 μM ATP, 50 min
T2 construct: purchased Carna Biosciences
T2 sequence (Q16620 32-822): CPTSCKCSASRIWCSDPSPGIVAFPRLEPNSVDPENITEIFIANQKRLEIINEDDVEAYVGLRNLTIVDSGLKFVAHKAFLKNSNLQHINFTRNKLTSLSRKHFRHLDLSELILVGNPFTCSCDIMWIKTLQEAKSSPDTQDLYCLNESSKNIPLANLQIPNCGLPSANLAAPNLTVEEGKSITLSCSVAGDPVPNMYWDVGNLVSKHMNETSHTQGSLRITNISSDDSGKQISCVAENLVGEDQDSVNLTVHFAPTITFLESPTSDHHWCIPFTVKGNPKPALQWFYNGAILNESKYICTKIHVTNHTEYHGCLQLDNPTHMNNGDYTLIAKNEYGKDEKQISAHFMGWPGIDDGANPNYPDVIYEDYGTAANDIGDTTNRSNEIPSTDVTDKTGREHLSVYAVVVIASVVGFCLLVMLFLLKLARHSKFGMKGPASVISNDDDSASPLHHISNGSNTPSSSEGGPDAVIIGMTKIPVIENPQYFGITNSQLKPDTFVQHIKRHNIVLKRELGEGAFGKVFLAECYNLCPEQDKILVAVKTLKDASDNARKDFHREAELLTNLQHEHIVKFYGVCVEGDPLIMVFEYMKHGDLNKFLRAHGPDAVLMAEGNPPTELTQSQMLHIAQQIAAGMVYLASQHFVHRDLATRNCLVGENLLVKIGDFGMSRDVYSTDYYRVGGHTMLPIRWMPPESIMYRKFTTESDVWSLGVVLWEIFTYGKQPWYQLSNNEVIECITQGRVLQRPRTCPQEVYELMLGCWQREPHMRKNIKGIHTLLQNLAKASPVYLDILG
Description: as §1, §2, §3
0.037 ng/μL TRKB protein kinase, 1 μM TK Substrate-biotin polypeptide substrate, 4.77 μM ATP, 1× enzymatic buffer, 5 mM MgCl2, and 1 mM DTT. The detection plate was White Proxiplate 384-Plus plate (PerkinElmer), and incubated at room temperature for 50 min, and the assay volume was 10 μL.
as §4, §5

Recombinant human TRKC = target: T3, Recombinant human TRKC (Homo sapiens, UniProt Q16288); experiment: In vitro activity test on TRKC kinase (HTRF KinEASE TK); conditions: 25.64 μM ATP, 40 min
T3 construct: purchased Carna Biosciences
T3 sequence (Q16288 32-839): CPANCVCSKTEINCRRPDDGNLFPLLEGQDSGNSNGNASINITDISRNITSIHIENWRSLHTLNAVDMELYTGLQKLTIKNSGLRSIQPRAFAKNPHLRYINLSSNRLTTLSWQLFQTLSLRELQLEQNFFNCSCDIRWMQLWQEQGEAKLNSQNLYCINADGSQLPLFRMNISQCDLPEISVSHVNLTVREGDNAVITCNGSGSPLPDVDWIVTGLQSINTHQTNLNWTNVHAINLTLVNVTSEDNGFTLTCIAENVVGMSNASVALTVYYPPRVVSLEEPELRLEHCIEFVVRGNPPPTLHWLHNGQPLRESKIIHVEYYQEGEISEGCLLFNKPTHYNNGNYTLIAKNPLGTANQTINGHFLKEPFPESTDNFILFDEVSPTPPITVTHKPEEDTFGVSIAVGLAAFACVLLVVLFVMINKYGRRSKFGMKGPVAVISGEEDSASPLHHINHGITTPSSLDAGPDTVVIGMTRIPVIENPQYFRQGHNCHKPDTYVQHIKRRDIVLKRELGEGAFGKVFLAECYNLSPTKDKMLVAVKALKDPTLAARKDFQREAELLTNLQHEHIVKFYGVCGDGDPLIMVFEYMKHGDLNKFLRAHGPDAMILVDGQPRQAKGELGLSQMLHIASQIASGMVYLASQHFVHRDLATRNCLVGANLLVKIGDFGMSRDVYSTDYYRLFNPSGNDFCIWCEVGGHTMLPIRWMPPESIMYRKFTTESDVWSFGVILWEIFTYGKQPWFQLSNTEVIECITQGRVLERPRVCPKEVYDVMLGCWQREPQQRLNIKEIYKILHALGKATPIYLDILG
Description: as §1, §2, §3
0.037 ng/μL TRKC protein kinase, 1 μM TK Substrate-biotin polypeptide substrate, 25.64 μM ATP, 1× enzymatic buffer, 5 mM MgCl2, and 1 mM DTT. The detection plate was White Proxiplate 384-Plus plate (PerkinElmer), and incubated at room temperature for 40 min, and the assay volume was 10 μL.
as §4, §5

[1] = target: T4, recombinant human TRKA (G595R) (Homo sapiens, UniProt P04629, G595R); experiment: In vitro activity test on mutant TRKA (G595R) (HTRF KinEASE TK); conditions: 4.5 μM ATP, 30 min
T4 construct: purchased SignalChem
T4 sequence (P04629 33-796 G595R): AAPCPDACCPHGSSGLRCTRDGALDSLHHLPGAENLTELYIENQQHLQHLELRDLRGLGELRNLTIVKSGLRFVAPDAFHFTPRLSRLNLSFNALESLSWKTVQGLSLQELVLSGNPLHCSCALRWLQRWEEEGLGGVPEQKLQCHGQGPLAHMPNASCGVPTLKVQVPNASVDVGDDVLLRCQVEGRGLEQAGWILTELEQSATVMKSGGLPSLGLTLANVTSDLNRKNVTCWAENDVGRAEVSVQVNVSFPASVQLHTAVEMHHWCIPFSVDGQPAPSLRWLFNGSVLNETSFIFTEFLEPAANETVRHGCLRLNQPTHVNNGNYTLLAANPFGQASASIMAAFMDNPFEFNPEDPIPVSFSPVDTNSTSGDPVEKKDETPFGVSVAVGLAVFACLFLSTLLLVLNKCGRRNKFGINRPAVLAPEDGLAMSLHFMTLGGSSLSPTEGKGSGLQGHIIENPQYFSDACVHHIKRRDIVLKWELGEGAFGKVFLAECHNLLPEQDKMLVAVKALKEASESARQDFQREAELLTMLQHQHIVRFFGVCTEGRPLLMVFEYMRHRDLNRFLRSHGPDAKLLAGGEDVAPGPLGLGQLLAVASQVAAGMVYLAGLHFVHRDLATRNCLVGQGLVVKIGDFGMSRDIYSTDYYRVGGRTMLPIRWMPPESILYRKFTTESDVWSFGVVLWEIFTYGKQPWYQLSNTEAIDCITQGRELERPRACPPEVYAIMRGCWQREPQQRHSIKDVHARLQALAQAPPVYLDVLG
Description: Biological Test Example 2 In Vitro Activity Test on Mutant TRKA (G595R), TRKA (G667C) and TRKC (G623R)
The recombinant human TRKA (G595R), TRKA (G667C) and TRKC (G623R) proteins were purchased from SignalChem. HTRF kinEASE TK kit was purchased from CisbioBioassays. Synergy Neo 2 of Biotek was used to read the plate.
The tested compound was subjected to 4-fold serial dilution to reach a final concentration of 1 μM to 0.004 nM (10 concentrates), duplicates for each concentration; and 1% DMSO was present in the detection reaction.
0.12 ng/μL TRKA (G595R) kinase, 1 μM TK Substrate-biotin polypeptide substrate, 4.5 μM ATP, 1× enzymatic buffer, 5 mM MgCl2, and 1 mm DTT. The detection plate was White Proxiplate384-Plus plate (PerkinElmer), and incubated at room temperature for 30 min, and the assay volume was 10 μL.
as §4
The value of 665/620 Ratio minus the value of negative control wells without enzyme, then the obtained value was converted according to the following formula into inhibition rate (%)=(1−Ratiotest/Ratiomax)×100%. Ratiomax was a positive control without tested compound, and Ratiotest was the value of each concentration of different compounds. IC50 (nM) data was obtained by 4 parameter curve fitting (see Table 1).

T1 sequence (P04629 33-796): as the sequence (P04629 33-796 G595R) above, with R563G counted along it

Row | Compound | IC50 (Recombinant human TRKA) [nM] | IC50 (Recombinant human TRKB) [nM] | IC50 (Recombinant human TRKC) [nM] | IC50 [1] [nM]
1 | O=C1CC(n2cc(-c3ccnc4ccc(N5C[C@@H](F)C[C@@H]5c5cc(F)ccc5F)nc34)cn2)CCN1 (stereo partly drawn) [Example 19, 4-(4-(6-((2R,4S)-2-(2,5-difluorophenyl)-4-fluoropyrrolidin-1-yl)-1,5-naphthyridin-4-yl)-1H-pyrazol-1-yl)piperidin-2-one] | < 10 | < 500 | < 500 | 
2 | O=c1n(-c2ncnc3ccc(N4C[C@@H](F)C[C@@H]4c4cc(F)ccc4F)nc23)ccn1C1CCNCC1 [Example 96, 1-(6-((2R,4S)-2-(2,5-difluorophenyl)-4-fluoropyrrolidin-1-yl)pyrido[3,2-d]pyrimidin-4-yl)-3-(piperidin-4-yl)-1,3-dihydro-2H-imidazol-2-one] | < 1 | < 10 | < 10 | < 10
3 | O=C(Nc1ccnc2ccc(N3CCC[C@@H]3c3cc(F)ccc3F)nc12)c1cnc(N2CC[C@H](O)C2)nc1 [Example 8, N-(6-((R)-2-(2,5-difluorophenyl)pyrrolidin-1-yl)-1,5-naphthyridin-4-yl)-2-((S)-3-hydroxypyrrolidin-1-yl)pyrimidin-5-carboxamide] | < 10 | < 1 | < 10 | 
4 | CN(C)c1ccnc2ccc(N3CCC[C@@H]3c3cc(F)ccc3F)nc12 [Example 4, (R)-6-(2-(2,5-difluorophenyl)pyrrolidin-1-yl)-N,N-dimethyl-1,5-naphthyridin-4-amine] | < 10 | < 10 | < 10 | 
5 | O[C@@H]1CCN(c2ccnc3ccc(N4CCC[C@@H]4c4cc(F)ccc4F)nc23)C1 [Example 3, (R)-1-(6-((R)-2-(2,5-difluorophenyl)pyrrolidin-1-yl)-1,5-naphthyridin-4-yl)pyrrolidin-3-ol] | < 150 | < 500 | < 500 | 
6 | O=C(O)[C@H]1CCN(c2ncc(-c3ncnc4ccc(N5C[C@@H](F)C[C@@H]5c5cc(F)ccc5F)nc34)cn2)C1 [Example 87, (S)-1-(5-(6-((2R,4S)-2-(2,5-difluorophenyl)-4-fluoropyrrolidin-1-yl)pyrido[3,2-d]primidin-4-yl)pyrimidin-2-yl)pyrrolidin-3-carboxylic acid] | < 1 | < 1 | < 1 | < 1
7 | Fc1ccc(Cl)c([C@H]2CCCN2c2ccc3ncc(F)c(-c4cnn(C5CCNCC5)c4)c3n2)c1 [Example 89, (R)-2-(2-(2-Chloro-5-fluorophenyl)pyrrolidin-1-yl)-7-fluoro-8-(1-(piperidin-4-yl)-1H-pyrazol-4-yl)-1,5-naphthyridine] | < 1 | < 10 | < 10 | < 1
8 | Fc1ccc(F)c([C@H]2C[C@H](F)CN2c2ccc3ncc(Cl)c(-c4cnn([C@H]5CCCNC5)c4)c3n2)c1 [Example 55, 7-chloro-2-((2R,4S)-2-(2,5-difluorophenyl)-4-fluoropyrrolidin-1-yl)-8-(1-((S)-piperidin-3-yl)-1H-pyrazol-4-yl)-1,5-naphthyridine] | < 10 | < 500 | < 500 | 
9 | O=C(Nc1c(Cl)cnc2ccc(N3C[C@@H](F)C[C@@H]3c3cc(F)ccc3F)nc12)C1CCNCC1 [Example 62, N-(3-Chloro-6-((2R,4S)-2-(2,5-difluorophenyl)-4-fluoropyrrolidin-1-yl)-1,5-naphthyridin-4-yl) piperidin-4-carboxamide] | < 1 |  |  | 
10 | CC1(O)CCN(c2ncc(-c3ncnc4ccc(N5C[C@@H](F)C[C@@H]5c5cc(F)ccc5F)nc34)cn2)C1 (stereo partly drawn) [Example 85, 1-(5-(6-((2R,4S)-2-(2,5-difluorophenyl)-4-fluoropyrrolidin-1-yl)pyrido[3,2-d]pyrimidine-4-yl)pyrimidin-2-yl)-3-methylpyrrolidin-3-ol] | < 1 | < 1 | < 1 | < 10
11 | Fc1ccc(F)c([C@H]2C[C@H](F)CN2c2ccc3ncnc(-c4noc(C5CCNCC5)n4)c3n2)c1 [Example 81, 3-(6-((2R,4S)-2-(2,5-difluorophenyl)-4-fluoropyrrolidin-1-yl)pyrido[3,2-d]pyrimidin-4-yl)-5-(piperidin-4-yl)-1,2,4-oxadiazole] | < 1 | < 10 | < 10 | < 10
12 | Fc1cnc(Cl)c([C@H]2CCCN2c2ccc3ncc(F)c(-c4cnn(C5CCNCC5)c4)c3n2)c1 [Example 90, (R)-2-(2-(2-Chloro-5-fluoropyridin-3-yl)pyrrolidin-1-yl)-7-fluoro-8-(1-(piperidin-4-yl)-1H-pyrazol-4-yl)-1,5-naphthyridine] | < 1 | < 10 | < 10 | < 1
13 | OC1CCN(c2nc(-c3ncnc4ccc(N5C[C@@H](F)C[C@@H]5c5cc(F)ccc5F)nc34)no2)CC1 [Example 80, 1-(3-(6-((2R,4S)-2-(2,5-difluorophenyl)-4-fluoropyrrolidin-1-yl)pyrido[3,2-d]pyrimidin-4-yl)-1,2,4-oxadiazol-5-yl)piperidin-4-ol] | < 1 | < 10 | < 10 | < 10
14 | COc1ccc(CNc2ccnc3ccc(N4CCC[C@@H]4c4cc(F)ccc4F)nc23)cc1 [Example 9, (R)-6-(2-(2,5-Difluorophenyl)pyrrolidin-1-yl)-N-(4-methoxybenzyl)-1,5-naphthyridin-4-amine] | < 50 | < 50 | < 50 | 
15 | O[C@H]1CCN(c2ccnc3ccc(N4CCC[C@@H]4c4cc(F)ccc4F)nc23)C1 [Example 5, (S)-1-(6-((R)-2-(2,5-difluorophenyl)pyrrolidin-1-yl)-1,5-naphthyridin-4-yl)pyrrolidin-3-ol] | < 100 | < 500 | < 150 | 
16 | OCCNc1ccnc2ccc(N3CCC[C@@H]3c3cc(F)ccc3F)nc12 [Example 6, (R)-2-((6-(2-(2,5-Difluorophenyl)pyrrolidin-1-yl)-1,5-naphthyridin-4-yl)amino)ethan-1-ol] | < 100 | < 500 | < 500 | 
17 | Fc1ccc(F)c([C@H]2C[C@H](F)CN2c2ccc3nncc(-c4cnn(C5CCNCC5)c4)c3n2)c1 [Example 64, 6-((2R,4S)-2-(2,5-difluorophenyl)-4-fluoropyrrolidin-1-yl)-4-(1-(piperidin-4-yl)-1H-pyrazol-4-yl)pyrido[3,2-c]pyridazine] | < 1 |  |  | 
18 | OC1CCN(c2nc(-c3c(F)cnc4ccc(N5C[C@@H](F)C[C@@H]5c5cc(F)ccc5F)nc34)no2)CC1 [Example 84, 1-(3-(6-((2R,4S)-2-(2,5-difluorophenyl)-4-fluoropyrrolidin-1-yl)-3-fluoro-1,5-naphthyridin-4-yl)-1,2,4-oxadiazol-5-yl)piperidin-4-ol] | < 1 | < 10 | < 1 | 
19 | Fc1ccc(F)c([C@H]2C[C@H](F)CN2c2ccc3ncc(Cl)c(-c4cnc(N5CCNCC5)s4)c3n2)c1 [Example 60, 5-(3-Chloro-6-((2R,4S)-2-(2,5-difluorophenyl)-4-fluoropyrrolidin-1-yl)-1,5-naphthyridin-4-yl)-2-(piperazin-4-yl)thiazole] | < 1 | < 10 | < 1 | 
